Experimental data as given in patent publication US5633230A, “Treatment of cytomegalovirus infection” (priority 1994, dated 1997).
Several values for one entry are separate records, joined by “and”; a condition that tells them apart may be missing. Identical values can stand only once.

Experiments:
[1] = test system: CMV strain AD-169; test: plaque reduction assay, CMV AD-169 in MRC-5 cells; assay type: cell-based, human CMV; details: CMV AD-169, MRC-5 (human embryonic lung), 24 h drug pretreatment
Experimental: The following procedures were then used to determine inhibitory effects of AV-9 on the replication of CMV. […] This was accomplished by diluting the stock peptide solution in growth medium (10% fetal bovine serum and 10 μg/ml gentamicin in Dulbecco's MEM (DMEM)) used to overlay the monolayers.
(§1) After pretreatment with AV-9, the monolayers were overlaid with 0.1 ml log10 dilutions of virus (CMV strain AD-169) ranging from 10^-1 to 10^-6. Virus was then allowed to adsorb for 1 hour at 37° C. The virus inoculum was removed and the monolayers were overlayed with DMEM containing 2% FBS, 10 ug/ml gentamicin and a specified concentration of AV-9. Virus was next allowed to replicate for 7 to 10 days until the plaques were judged to be well developed, and then the monolayers were fixed and stained with a solution of 1% crystal violet in 1% formaldehyde,70% ethanol. Finally, plaques (each representing a single viable virion) were counted and checked microscopically.
(§2) In a like manner, plaque reduction assays were also performed against other CMV strains and another CMV host, with comparison against ganciclovir (GCV) and foscarnet (FCV).

[2] = blood levels after single subcutaneous injection of labelled compound; assay type: in vivo; details: mice
Experimental: Blood levels in mice resulting from single subcutaneous injection of a 53 μg dose of the labelled compound were also evaluated. […] Peak levels were maintained for about 20 minutes. At 40 minutes and 2 hours, blood levels had declined to about 80% of peak values. […] Evidently, the compound AV-9 reaches the bloodstream rapidly.

[3] = test system: ganciclovir-resistant CMV strains 759^r D100 and GDG^r K17 and foscarnet-resistant CMV strains PFA^r D100 and PFA^r B300; details: range over strains 759^r D100, GDG^r K17, PFA^r D100, PFA^r B300; MRC-5; drug pre- and post-infection
Experimental: This stock solution was subsequently diluted in cell culture medium to obtain the test concentrations used in the study. Ganciclovir (GCV) was dissolved in sterile, deionized water, and the drug concentration measured spectrophotometrically (7.8mM). Foscarnet (phosphonoformic acid, PFA) was dissolved in sterile, deionized water to a final concentration of 100 mM. Aliquots of the stock solutions were stored at -70° C.
Drug-resistant human CMV strains 759^r D100, GDG^r K17, PFA^r D100 and PFA^r B300 were obtained from Dr. Donald M. Coen, Harvard Medical School, Boston, Mass.
The drug stock solutions were diluted with fresh culture medium to obtain the desired test concentrations in the range 0.5-2500 μM.
MRC-5 cells (4-5×10^5 per well) were grown for 24 hours at 37° C. in 5% CO2 atmosphere in D-MEM/F-12FBS medium containing varying concentrations of drug. At the end of the pre-treatment period, the cells were infected with a suspension containing 50 plaque forming units of CMV (MOI=0.0001). The virus was allowed to absorb for 60 minutes at 37° C. in the absence of drug, at which time the virus innoculum was washed away, and the cells fed with fresh growth medium containing drug. […] Vital plaques were counted under a microscope after removing the culture medium from the wells, staining the cells with 1.1% Crystal Violet solution, and washing twice with tap water. […]

[4] = test system: Smith strain of murine CMV; test: murine CMV infection in cyclophosphamide-immunosuppressed mice; assay type: in vivo, BALB/c mice; details: for Surv/Total / Mean Day to Death ± S.D.: infected mice
Excerpt: This immunosuppression model mimics the human patient situation, wherein the HCMV-induced disease in immunosuppressed individuals can often be fatal. The particular model used for evaluating potential antiviral activity has been described by Smee et al in J. Infect. Dis., 1991, 164: 958.
The Smith strain of murine CMV, obtained originally from the American Type Culture Collection (Rockville, Md.) was used. A mouse salivary gland preparation was used for the virus pool. An inoculation of 2×10^4 plaque forming units of the virus was used in the antiviral study. Female BALB/c mice weighing 10-12 g were quarantined 24 hr prior to use, and maintained on Wayne Lab Blox and tap water ad libitum the duration of the study.
Ganciclovir (DHPG) was purchased from a commercial source, and cyclophosphamide was purchased from Sigma Chemical Co. (St. Louis, Mo.).
To determine tissue virus titre, homogenates of infected mouse organs were titrated for virus using C127/I cells in 96-well microplates. Each tissue sample was homogenized and titrated separately with 3 micro wells used per dilution; plates were read by microscopic examination for viral-induced cytopathic effect, with 50% end points determined by the Reed-Muench method. Mean viral titers were expressed at 50% cell culture infectious doses (CCID50)/gram of tissue.
For statistical evaluation, increases in mean day to death and reductions in viral titers were assessed using the two-tailed Mann-Whitney U test. Total survivor increases were evaluated by chi square analysis with Yates'.

[5] = test system: CMV strain Davis; details: MRC-5, plaque reduction, 24 h drug pretreatment
Experimental: The following procedures were then used to determine inhibitory effects of AV-9 on the replication of CMV. First, confluent monolayers of the human diploid cell line, MRC-5 (ATCC# CCL 171) in 24 well cell culture plates were pretreated with specified concentrations (20 μM, 10 μM, 5 μM, 2.5 μM, 1.0 μM, 0.5 μM and 0.0 μM) of AV-9 for 24 hours. This was accomplished by diluting the stock peptide solution in growth medium (10% fetal bovine serum and 10 μg/ml gentamicin in Dulbecco's MEM (DMEM)) used to overlay the monolayers.
as §1, §2

[6] = single s.c. injection, 53 μg labelled compound
[7] = 0.2 mg/kg/day i.p. every other day, day 9
[8] = 0.2 mg/kg/day i.p. every other day, 9 days after virus challenge
[9] = 0.1 mg/kg/day i.p., daily days -2 through +10
[10] = 0.7 mg/kg/day i.p., days -2,0,+2,+4,+6,+8,+10
[11] = 2.0 mg/kg/day i.p., days -2,0,+2,+4,+6,+8,+10

SMILES: CC(=O)N[C@H](CCCNC(=N)N)C(=O)N[C@H](CCCNC(=N)N)C(=O)N[C@H](CCCNC(=N)N)C(=O)N[C@H](CCCNC(=N)N)C(=O)N[C@H](CCCNC(=N)N)C(=O)N[C@H](CCCNC(=N)N)C(=O)N[C@H](CCCNC(=N)N)C(=O)N[C@H](CCCNC(=N)N)C(=O)N[C@H](CCCNC(=N)N)C(N)=O [AV-9, acetyl-[D-Arg]9 -NH2]
- IC50 [1]: 2600 nM and 4800 nM and 2700 nM
- blood level relative to peak values ([2]; at 40 minutes and 2 hours, single s.c. 53 μg): about 80%
- blood level relative to peak ([2]; at 4 hour, single s.c. 53 μg): about 10%
- blood level ([2]; at 8 hours and 24 hours, single s.c. 53 μg): threshold of detection
- time near peak blood levels are maintained ([2]; single s.c. 53 μg, summary statement): 20 to 120 min
- near-peak blood level [2, 6]: around 1 μg/ml
- time peak blood levels were maintained [2, 6]: about 20 minutes
- time to near-peak blood levels following injection [2, 6]: 5 min
- IC50 [3]: 1300 to 2100 nM
- animals without detectable virus in lungs [4, 7]: one had no detectable virus
- animals without detectable virus in spleen, of the five sampled [4, 7]: three had no detectable virus
- effect on salivary gland virus titers [4, 7]: No effect
- reduction of mean lung virus titer compared to placebo-treated controls [4, 7]: 0.6 log10
- Tissue Virus Titer ± S.D., Lung [4, 8]: 3.3 ± 1.9 log10 CCID50/g
- Tissue Virus Titer ± S.D., Salivary Gland [4, 8]: 7.6 ± 1.2 log10 CCID50/g
- Tissue Virus Titer ± S.D., Spleen [4, 8]: 1.5 ± 2.26 log10 CCID50/g
- Surv/Total ([4]; 0.07 mg/kg/day i.p., days -2,0,+2,+4,+6,+8,+10): 0/8
- Mean Day to Death ± S.D. ([4]; 0.07 mg/kg/day i.p., days -2,0,+2,+4,+6,+8,+10, P<0.05 vs saline): 13.4 ± 2.6 days
- Mean Day to Death ± S.D. [4, 9]: 11.3 ± 0.5 days
- Surv/Total [4, 9]: 0/8
- Surv/Total ([4]; 0.2 mg/kg/day i.p., days -2,0,+2,+4,+6,+8,+10): 0/8
- Mean Day to Death ± S.D. ([4]; 0.2 mg/kg/day i.p., days -2,0,+2,+4,+6,+8,+10, P<0.01 vs saline): 18.5 ± 3.7 days
- Mean Day to Death ± S.D. [4, 10]: 11.6 ± 1.6 days
- Surv/Total [4, 10]: 0/7
- Mean Day to Death ± S.D. [4, 11]: 12.1 ± 1.3 days
- Surv/Total [4, 11]: 0/7
- IC50 [5]: 2300 nM
